From publication PMC4490227, “Identification of Glycyrrhiza as the rikkunshito constituent with the highest antagonistic potential on heterologously expressed 5-HT3A receptors due to the action of flavonoids” (Frontiers in Pharmacology, 2015)
Read-outs that look alike come from different tables or passages of the source.

Target: T1, human 5-HT3A receptors (Homo sapiens, UniProt P46098)
T1 sequence (P46098 24-478): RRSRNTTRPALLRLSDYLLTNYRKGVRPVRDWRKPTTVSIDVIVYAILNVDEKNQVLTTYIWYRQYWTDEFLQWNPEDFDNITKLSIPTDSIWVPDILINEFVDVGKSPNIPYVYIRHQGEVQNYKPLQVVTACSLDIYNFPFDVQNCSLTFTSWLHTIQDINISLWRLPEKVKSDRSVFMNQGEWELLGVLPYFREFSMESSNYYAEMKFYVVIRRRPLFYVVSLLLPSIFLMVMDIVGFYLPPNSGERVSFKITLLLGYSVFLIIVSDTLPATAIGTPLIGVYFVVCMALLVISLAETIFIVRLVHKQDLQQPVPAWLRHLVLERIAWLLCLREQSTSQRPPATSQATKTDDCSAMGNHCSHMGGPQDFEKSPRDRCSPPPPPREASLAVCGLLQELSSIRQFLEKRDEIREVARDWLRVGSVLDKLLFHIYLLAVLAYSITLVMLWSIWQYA
Experiment: Two-electrode voltage-clamp: modulation of 5-HT-induced currents at 5-HT3A receptors heterologously expressed in Xenopus laevis oocytes
Type: cell-based
Parameters: key to mode of antagonism: c, apparently competitive; nc, non-competitive
Settings: for synergistic effects between different herbal 5-HT3A receptor antagonists: pairs: 6-gingerol and citronellol, hesperetin and 6-shogaol (Supplementary Figure 3); for IC50: read-out: IC50 of substances; for inhibition of the 5-HT3A receptor response by solvent: solvent 1.0 Vol.-%
Method: The expression plasmid contains the cDNA coding for the 5-HT3A protein in pcDNA3 (Invitrogen) (Lobitz et al., [2001]). cRNAs were prepared using the AmpliCap T7 high-yield message marker kit (Epicenter, Madison, WI, USA), following the manufacturer's protocol. Xenopus laevis oocytes were obtained as previously described (Sherkheli et al., [2010]) and injected with a total amount of 7–20 ng of the receptor-coding cRNA using an injection-setup from WPI (Nanoliter 2000, Micro4). The injected oocytes were stored in ND 96 (96.0 mM NaCl, 2.0 mM KCl, 1.8 mM CaCl2, 1.0 mM MgCl2, 5.0 mM HEPES, pH 7.2, 200 U/ml penicillin, and 200 μg/ml streptomycin) at 17°C. Measurements were performed one to 5 days after cRNA injection.
The electrophysiological recordings were performed using the two-electrode voltage-clamp technique as previously described (Saras et al., [2008]). All of the measurements were performed in normal frog ringer (NFR) [115 mM NaCl, 2.5 mM KCl, 1.8 mM CaCl2, 10 mM HEPES; pH 7.2 (NaOH/HCl)] containing niflumic acid (NA) (100 μM) to block the Ca^2+-induced currents mediated by the intrinsic chloride channel (TMEM16A) or under Ca^2+-free conditions [115 mM NaCl, 2.5 mM KCl, 1.8 mM MgCl2, 10 mM HEPES; pH 7.2 (NaOH/HCl)]. All of the substances were applied after preincubation (30 s). The currents were recorded at a holding potential of typically −60 mV using the Cell Works 6.1.1. software (NPI).
As a control, we tested the competitive antagonists ondansetron (1 nM) and d-tubocurarine (20 μM) (Hope et al., [1996]) and the non-competitive antagonist picrotoxin (50 μM) (Das and Dillon, [2005]). […] Nevertheless, a definitive differentiation between competitive, allosteric, and concentration-dependent antagonists must be performed using ligand binding assays.
The concentration-response data were fitted with the Hill equation with variable slope using SigmaPlot 8.0 (SPSS). Thereby, the calculation of the EC50 and IC50-values was done. The deviations are represented by the standard error of the mean (SEM). The datasets were tested for statistically significant differences through Student's t-test using Excel 2010 (Microsoft) (^*p < 0.05; ^**p < 0.005; ^***p < 0.0005). For multiple comparisons, the significance levels were corrected via Bonferroni-correction.

[1] = from comparison of inhibition at 2.5 and 30 μM 5-HT
[2] = inhibition at 2.5 vs 30 μM 5-HT
[3] = read-out: Mean inhibition ± SEM [%] 5-HT [2.5 μM]
[4] = read-out: Mean inhibition ± SEM [%] 5-HT [30 μM]
[5] = substance 1 mM (Figure 2A), read-out: 5-HT3A receptor inhibition by the substances (screening)

## CCCCC[C@H](O)CC(=O)CCc1ccc(O)c(OC)c1 [6-gingerol]
  synergistic effects between different herbal 5-HT3A receptor antagonists: synergistic

## CCCCC/C=C/C(=O)CCc1ccc(O)c(OC)c1 [6-shogaol]
  synergistic effects between different herbal 5-HT3A receptor antagonists: synergistic

## O=C1C[C@@H](c2ccc(O)cc2)Oc2cc(O)ccc21 [(-)-liquiritigenin]
[1]
  mode of antagonism: ^*/nc
[2]
  mode of antagonism: non-competitive
  IC50: 210 ± 25 µM
[3]
  inhibition at 500 µM: 84.5 ± 2.4%
[4]
  inhibition at 500 µM: 93.5 ± 0.5%
[5]
  inhibition at 1000 µM: 92.8 ± 2.2%

## C=C1CCC[C@]2(C)C[C@]3(O)OC(=O)C(C)=C3C[C@@H]12 [Atractylenolide III, atractylenolide III]
[1]
  mode of antagonism: ns/nc
  IC50: 1320 ± 145 µM
[3]
  inhibition at 1000 µM: 55 ± 6.2%
[4]
  inhibition at 1000 µM: 57.8 ± 6%

## COc1cc2c3cc1Oc1cc(ccc1O)C[C@@H]1c4c(cc(OC)c(O)c4Oc4ccc(cc4)C[C@@H]3N(C)CC2)CC[N+]1(C)C [D-tubocurarine, d-tubocurarine, reference compound]
[1]
  mode of antagonism: ^**/c
[3]
  inhibition at 20 µM: 82 ± 3.5%
[4]
  inhibition at 20 µM: 45.9 ± 4.8%

## C[S+](C)[O-] [DMSO, dimethyl sulfoxide]
  inhibition of the 5-HT3A receptor response by solvent: 29.1 ± 4.7%

## CCO [Ethanol, ethanol]
  inhibition of the 5-HT3A receptor response by solvent: 14.1 ± 2.6%

## CC1(C)C=Cc2c(ccc3c2OC[C@@H](c2ccc(O)cc2O)C3)O1 [Glabridin, glabridin]
[1]
  mode of antagonism: ^***/c
[2]
  mode of antagonism: apparent competitive antagonism
  IC50: 28 ± 2.8 µM
[3]
  inhibition at 100 µM: 64.7 ± 2.1%
[4]
  inhibition at 100 µM: 17.3 ± 2.3%
Substance 100 μM (Figure 2A), read-out: 5-HT3A receptor inhibition by the substances (screening)
  inhibition at 100 µM: 62.8 ± 2.1%

## CC1(C)[C@@H](O[C@H]2O[C@H](C(=O)O)[C@@H](O)[C@H](O)[C@H]2O[C@@H]2O[C@H](C(=O)O)[C@@H](O)[C@H](O)[C@H]2O)CC[C@]2(C)[C@H]3C(=O)C=C4[C@@H]5C[C@@](C)(C(=O)O)CC[C@]5(C)CC[C@@]4(C)[C@]3(C)CC[C@@H]12 [Glycyrrhizin, glycyrrhizin]
[5]
  inhibition at 1000 µM: -3.1 ± 4.3%

## COc1ccc([C@@H]2CC(=O)c3c(O)cc(O)cc3O2)cc1O [Hesperetin, hesperetin]
[1]
  mode of antagonism: ns/nc
  synergistic effects between different herbal 5-HT3A receptor antagonists: synergistic
  IC50: 218 ± 38 µM
[3]
  inhibition at 1000 µM: 77.3 ± 9%
[4]
  inhibition at 1000 µM: 79.7 ± 6.1%
Substance 1 mM (Figure 2A)
  5-HT3A receptor inhibition by the substances (screening): antagonistic effects
[5]
  inhibition at 1000 µM: 66.6 ± 9.3%

## COc1ccc([C@@H]2CC(=O)c3c(O)cc(O[C@@H]4O[C@H](CO[C@@H]5O[C@@H](C)[C@H](O)[C@@H](O)[C@H]5O)[C@@H](O)[C@H](O)[C@H]4O)cc3O2)cc1O [Hesperidin, hesperidin]
Substance 1 mM (Figure 2A)
  5-HT3A receptor inhibition by the substances (screening): no effect
Substance 1 mM (Figure 2A), listed as hesperidin
  5-HT3A receptor inhibition by the substances (screening): −2.6 ± 5.3%

## C=CC(C)(C)c1cc(/C=C/C(=O)c2ccc(O)cc2)c(OC)cc1O [Licochalcone A, licochalcone A]
  direct activation of 5-HT3A receptors: absence of the direct activation
  IC50: 14.4 ± 1.3 µM
5 μM 5-HT
  residual current remaining: approximately 40%
[1]
  mode of antagonism: ^*/c
[2]
  mode of antagonism: apparent competitive antagonism
[3]
  inhibition at 1000 µM: 76.1 ± 6.1%
[4]
  inhibition at 1000 µM: 58.7 ± 2.6%
[5]
  inhibition at 1000 µM: 70.6 ± 3.1%

## Cc1nccn1CC1CCc2c(c3ccccc3n2C)C1=O (centres unmarked) [Ondansetron, ondansetron, reference compound]
[1]
  mode of antagonism: ^*/c
[3]
  inhibition at 0.001 µM: 82.4 ± 3.4%
[4]
  inhibition at 0.001 µM: 57.9 ± 5.3%

## CC(C)=CCCC(C)CCO (centres unmarked) [citronellol]
  synergistic effects between different herbal 5-HT3A receptor antagonists: synergistic

## C[C@@H]1O[C@@H](OC[C@H]2O[C@@H](Oc3c(-c4ccc(O)c(O)c4)oc4cc(O)cc(O)c4c3=O)[C@H](O)[C@@H](O)[C@@H]2O)[C@H](O)[C@H](O)[C@H]1O [rutin]
Substance 1 mM (Figure 2A)
  5-HT3A receptor inhibition by the substances (screening): antagonistic effects
[5]
  inhibition at 1000 µM: 57 ± 6.1%

## picrotoxin [reference compound]
[1]
  mode of antagonism: ns/nc
Substance 50 μM, 5-HT 2.5 μM, 30 s preincubation
  Mean inhibition ± SEM [%] 5-HT [2.5 μM]: 72.5 ± 3.7%
Substance 50 μM, 5-HT 30 μM, 30 s preincubation
  Mean inhibition ± SEM [%] 5-HT [30 μM]: 73.0 ± 2.8%
